# Data taken from patent publication US8017611B2, “Pyridine and pyrazine derivatives -083” (AstraZeneca AB, priority 2007, dated 2011).
# Target: T1, c-Met (Homo sapiens, UniProt P08581)
# T1 construct: pY^1234pY^1235c-Met(1074-1366) kinase domain
# Experiment: In vitro c-Met kinase assay (AlphaScreen), Test (c)
# Assay type: biochemical
# Conditions: read-out: IC50 versus c-Met tyrosine kinase
# Protocol: The assay used AlphaScreen technology (Gray et al., Analytical Biochemistry, 2003, 313: 234-245) to determine the ability of test compounds to prevent the activation of c-Met, in which wild type activated c-Met phosphorylates a mutant form of c-Met lacking catalytic activity but retaining the ability to be phosphorylated on the activating residues.
# Kinase activity assays were performed in 384-well low-volume white plates (Greiner, 784075) with a total volume of 12 μL in each well. Each kinase reaction contained 40 pg (100 pM) pY^1234pY^1235c-Met(1074-1366) kinase domain, 44 ng (100 nM) cMyc-[D1204N,R1208Q]c-Met(1069-1366)-biotin, 25 mM HEPES (pH7.4), 0.1 mM sodium orthovanadate, 1 mM DTT, 0.01% (v/v) Tween-20, 10 mM magnesium chloride, 0.1% BSA, 50 μM ATP.
# Various concentrations of test compounds were each added in 6% (v/v) DMSO to yield a final assay DMSO concentration of 1% (v/v). […] Plates were read using an Envision (Perkin Elmer) with excitation at 680 nm, emission […]. […]
# T1 sequence (P08581 1074-1366): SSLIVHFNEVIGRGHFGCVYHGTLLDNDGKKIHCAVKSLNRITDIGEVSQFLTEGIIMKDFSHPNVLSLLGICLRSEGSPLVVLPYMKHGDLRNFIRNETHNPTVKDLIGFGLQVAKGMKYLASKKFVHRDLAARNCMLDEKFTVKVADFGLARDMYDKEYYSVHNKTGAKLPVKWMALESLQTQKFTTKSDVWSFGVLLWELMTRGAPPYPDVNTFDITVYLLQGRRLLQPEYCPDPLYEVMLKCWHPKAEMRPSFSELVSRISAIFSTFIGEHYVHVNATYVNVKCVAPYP
smiles,measurement,value
CN1CCC(n2cc(-c3cnc(N)c(-c4nc5ccc(F)cc5o4)c3)cn2)CC1 [Example 7.2],IC50,~1950 nM
